Patent US20140170125A1, “USE OF CARDIOTROPHIN-1 FOR THE TREATMENT OF KIDNEY DISEASES” (DIGNA Biotech, S.L., priority 2011, published 2014)

How the values were obtained:
[1] = tested on: acute kidney injury produced by gentamicin; experiment: Acute kidney injury produced by gentamicin
[2] = tested on: experimental model of iodinated contrast nephropathy; experiment: Contrast-induced nephropathy: Gastrografin in rats sensitized with subtoxic gentamicin
Method: The rats were placed in individual metabolic cages where they had free access to food and drink. After two days of acclimatization, the 24-hour urine was collected in graduated cylinders. The urine collected was centrifuged during 8 minutes at 2,500 rpm, to clean it from residues not thereof, the clean urine was collected and it was stored at −80° C. for its later analysis.
The blood samples were obtained in capillaries with heparin by a small cut at the end of the tail. Five capillaries were extracted per rat (200 μL), and the capillaries were centrifuged in a microcentrifuge at 11,000 rpm during three minutes. Once centrifuged, the capillaries were broken with the aid of a file, by the cells-plasma limit. The plasma was extracted and stored in eppendorf tubes at −80° C. for its later analysis.
To measure kidney function, the plasma concentrations of creatinine and creatinine clearance, which is a measurement of the glomerular filtration rate, were determined. The creatinine clearance (CrCl) was calculated from the formula CrCl=UF×CrU/CrP, where UF is the urinary flow (ml/min), CrU the creatinine concentration in urine (mg/ml) and CrP the creatinine concentration in plasma (mg/ml). The creatinine concentration in urine and in plasma were measured by a semiautomatic analyser (Reflotron, Roche).
The concentration of urea in plasma was measured by specific reactive strips of a commercial kit, using a semiautomatic analyser (Reflotron, Roche).
The concentration of proteins in urine (proteinuria) was measured by Bradford's colorimetric method (Anal Biochem. 1976; 72:248-54). The urinary excretion of proteins (UEprot) in 24 hours was calculated by the formula: UEprot=Cprot×FU24 h, where Cprot is the concentration of proteins in urine (mg/mL) and FU24 h the urinary flow of 24 hours (mL/day).
For its determination a commercial kit from Roche was used, following the manufacturer's specifications, and the results were analysed with the KC-Junior software.
In the Western Blot technique, 100 μg of protein of the total of the renal tissue homogenate or a volume of urine of each animal which corresponds to the excretion fraction were loaded in a polyacrylamide gel. After separation by electrophoresis, these proteins were transferred to a PVDF membrane (Inmobilon-P #IPVH00010, Madrid, Spain), and they were hybridized with antibodies against KIM-1 (R&D Systems) and NGAL (MBL).
An experimental model of iodinated contrast nephropathy was used, consisting of the intravenous administration of the iodinated contrast Gastrografin (Bayer C. N. 909622 EXO) to rats predisposed to suffering acute kidney failure.
The experiment was performed on 32 male Wistar rats of around 220 grams in weight. The environmental conditions of the animals were kept constant: temperature of around 20° C., humidity of approximately 60% and daily light period (photoperiod) of 12 hours.
Six experimental groups were considered in the design study:
Control group (C): rats administered saline solution (n=5).
Cardiotrophin group (CT-1): rats administered cardiotrophin i.v. (100 μg/Kg/day) the day before the administration of the contrast and in the four subsequent days (n=5).
Gastrografin group (Gg): rats administered a single dose of iodinated agent i.v. (10 mL/Kg; […]) (n=5).
The animals were housed in metabolic cages in order to collect the urine free of faeces. Likewise, a blood sample was obtained every day (0.150 ml) from the tail in heparized capillaries.
At the end of the experiments (four days after administration of the iodinated contrast) the rats were anaesthetized and, later, they were perfused with heparinized saline solution. The kidneys were obtained from these animals and part of the samples was introduced in formol to perform histological studies whilst another part was ultrafrozen for the tissue studies.
The studies performed were the following:
Plasma creatinine, Plasma urea, proteinuria, microalbuminuria
Creatinine clearance in metabolic cages

Substance: gentamicin [reference compound]
- urinary flow ([1]; administered separately, vs control group (C)): Neither G nor CT-1, administered separately, modified the urinary flow
- general condition (appearance, mobility) ([1]; agent alone): more deteriorated appearance, reduced mobility and slight colouring of the hair
- proteinuria ([1]; agent alone): high proteinuria
- reactive bands to the anti KIM-1 antibody in the urine ([1]; agent alone, vs controls): clear increase
- renal levels of KIM-1 (Western blot) ([1]; agent alone, vs controls): clear increase
- liver weight (with respect to the body weight) ([1]; at the time of sacrifice): tendency for relative weight reduction
- renal and urinary NGAL (Western blot) ([1]; end of treatments): induce an increase
- renal cortex histology (hematoxylin-eosin) ([1]; gentamicin alone, end of treatments): massive tubular necrosis
- survival ([1]; until the end of the experiment): one animal from each group died
- body weight ([1]; vs control and CT-1 groups): slight decrease
- proteinuria ([2]; agents without CT-1 protection or alone, vs control): did not alter
- KIM-1 in the urine (Western blot) ([2]; in comparison with the controls): produced no effect
- general condition (appearance, mobility) ([2]; throughout the experiment): healthy appearance and normal mobility
- survival ([2]; until the end of the experiment (four days after contrast)): all animals survived until the end of the experiment
- PAI-1 in the urine (Western blot) ([2]; vs control group): not different from the control group animals
